Measured values reported in patent US12544403B2, “Methods to treat mitochondrial-associated dysfunctions or diseases” (The General Hospital Corporation, priority 2019, dated 2026).

Assays:
[1] = Hematocrit and COHb measurements (blood gas analyzer) in mice chronically breathing CO; assay type: in vivo; details: for hematocrit: after three weeks of 600 ppm CO treatment
Procedure: Eighty microliters of blood were collected by tail snip into a heparinized capillary. Hemoglobin concentration, hematocrit and the saturation of hemoglobin with oxygen (O2Hb) and carbon monoxide (COHb) were measured using a blood gas analyzer (ABL800 FLEX, Radiometer, Copenhagen, Denmark).
(§1) Mice were housed in 80-L transparent acrylic boxes. Control chambers were provided with a constant flow of medical air at 21% FiO2. A concentration of 11% or 17% oxygen was obtained by mixing medical air with nitrogen obtained from a nitrogen generator (MAG-20; Higher Peak). A concentration of 600 ppm CO was obtained by mixing medical air with CO from a cylinder containing 2% CO (20,000 ppm) (Airgas). The total gas flow through the chamber was adjusted to maintain chamber CO2 concentrations below 0.4% (CO200; Extech). Soda lime was added to the chambers as a CO2 scavenger. The oxygen concentration was measured at the outlet port of the chamber with an O2 sensor (MiniOx 1; Ohio Medical), which was calibrated using an 8.55% O2 reference tank (Airgas). In a similar way the CO concentration was measured a CO sensor (MSA Altair PRO; MSA Safety Inc, Pittsburgh, Pa), which was calibrated using a 1000 ppm CO reference cylinder (Airgas). Oxygen levels inside the chambers were tolerated within a 0.4% offset from the target concentration by adjusting nitrogen flow as needed. Temperature was maintained at 24-26° C., and humidity was maintained at 30-70%. A standard light-dark cycle of ˜12 h light exposure was used. Mice were housed in cages with standard bedding and given unlimited access to food and water.

[2] = Brain tissue PO2 measurement (vestibular nuclei, optical probe); assay type: in vivo, mice; details: optical probe (FIG. 3G)
Procedure: Ndufs4^−/− and WT mice were anesthetized with Isoflurane (induction at 2-4%, maintenance at 1-1.5%), intubated, and mechanically ventilated with a tidal volume of 8 ml/kg, a respiratory rate of 110 breaths per minute and an inspired fraction of oxygen (FiO2) of 21%. Mice were placed in a prone position and the head was stabilized using a stereotaxic frame (ASI instruments, Inc., MI). After incision and dissection of the skin, an opening in the skull was performed using a micro-drill (MD-1200, Braintree Scientific, Inc., MA) and a PO2 probe was inserted at the desired location. The coordinates for the thalamic measurements were mediolateral [ML]=−1.00 mm, anterioposterior [AP]=−2.00 mm, and dorsoventral [DV]=−4.00 mm from the bregma, while the coordinates for the vestibular nuclei were ML=−1.25 mm, AP=−6.00 mm, and DV=−3.90 mm from the bregma. […] In some experiments the FiO2 was modulated over the course of the test and the brain PO2 was simultaneously measured.
(§2) Mice were housed in 80-L transparent acrylic boxes. […] The oxygen concentration was measured at the outlet port of the chamber with an O2 sensor (MiniOx 1; Ohio Medical), which was calibrated using an 8.55% O2 reference tank (Airgas). In a similar way the CO concentration was measured a CO sensor (MSA Altair PRO; MSA Safety Inc, Pittsburgh, Pa), which was calibrated using a 1000 ppm CO reference cylinder (Airgas). […]

Ndufs4 KO mice [3] = test: Survival and body weight of Ndufs4 KO mice (Leigh syndrome model) breathing CO; assay type: in vivo
Text: All animal work in manuscript was approved by the Subcommittee on Research Animal Care and the Institutional Animal Care and Use Committee of Massachusetts General Hospital. Ndufs4^−/− were obtained from Palmiter laboratory (University of Washington). Mice lacking Phd1 (Aragones et al., 2008), Nestin-Phd2 (Mazzone et al., 2009) and Phd3 (Bishop et al., 2008) were provided by the Carmeliet laboratory (KU Leuven). Vh1L^ch/ch mice were provided by Josef Prchal (University of Utah). Genetic crosses were performed by crossing Ndus4^+/− mice with remaining strains. Throughout this study, Ndufs4^+/+ and Ndufs4^+/− mice were indiscriminately used as healthy controls, since there is no apparent phenotypical difference between these genotypes. When possible, controls from the same genetic cross were used, in order to make comparisons between reasonably similar genetic backgrounds. Pups were genotyped and weaned from mothers at 25-30 d of age. Cages and water were changed weekly. […]
as §2

Ndufs4 KO mice [4] = test: T2-weighted brain MRI of Ndufs4 KO mice breathing CO; assay type: in vivo
Text: as §1
MRI scans of the brain were performed as previously described (Ferrari et al., 2017), using respiratory gated T2-weighted RARE (rapid acquisition of refocused echoes) MRI images acquired on a 4.7-T small animal scanner (Pharmascan; Bruker) with the following parameters: RARE factor: 10, echo time: 60 ms, repetition time: 6000 ms, Averages: 8, 192×192×24 image matrix with a voxel size of 0.130×0.130×0.7 mm. Mice were under anesthesia (isoflurane between 0.5-1.5% in room air) during the imaging procedure. Images were generated using a DICOM reader (Osirix, University of Geneva).

hemoglobin = hemoglobin (Homo sapiens, UniProt P68871+P69905); details: cited from earlier work
[5] = Ndufs4 KO mice exposed to CO for 2-3 months (FIG. 3H)

hemoglobin, sequence (P69905 2-142 limits assumed): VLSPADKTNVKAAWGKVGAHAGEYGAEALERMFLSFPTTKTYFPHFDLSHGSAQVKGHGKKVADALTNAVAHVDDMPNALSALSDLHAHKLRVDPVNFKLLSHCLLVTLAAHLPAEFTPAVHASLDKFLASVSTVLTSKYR
hemoglobin, sequence (P68871 2-147 limits assumed): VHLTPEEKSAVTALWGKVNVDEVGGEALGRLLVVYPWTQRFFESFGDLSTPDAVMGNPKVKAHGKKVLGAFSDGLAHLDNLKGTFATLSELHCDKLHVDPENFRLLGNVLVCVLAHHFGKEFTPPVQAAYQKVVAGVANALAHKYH

With [C-]#[O+] [CO, carbon monoxide] the hematocrit ([1]; Ndufs4 KO mice) was 76%, the hematocrit ([1]; WT mice) was 79% and the “arterial O2Hb” value ([1]; chronic, continuous 600 ppm CO in air (FIG. 3C)) was ~60%. The “arterial COHb” value ([1]; chronic, continuous 600 ppm CO in air, WT mice (FIG. 3C)) was ~40%, the “brain PO2” value ([2]; Ndufs4 KO mice chronically breathing CO at 600 ppm in air) was 36 mmHg and the “brain PO2” value ([2]; WT mice chronically breathing CO at 600 ppm in air) was 19 mmHg. For the same molecule, the median survival (Ndufs4 KO mice [3]; 600 ppm CO in room air (FIG. 3E)) was ~150 days, the body weight (Ndufs4 KO mice [3]; 600 ppm CO started at late-stage disease (FIG. 3D)) was “body weight gradually regained” and the “Leigh's disease lesions on MRI” value (Ndufs4 KO mice [4]; [5]) was “not present”. The “new brain lesions on MRI due to chronic CO treatment” value (Ndufs4 KO mice [4]; [5]) was “hyperintense lesions apparent in the caudoputamen region of the brain”, the “MRI lesions in the vestibular nucleus” value (Ndufs4 KO mice [4]; late-stage Ndufs4 KO mice, 600 ppm CO for 2-3 weeks (FIG. 3F)) was “completely reversed lesions in the vestibular nucleus” and the “affinity for hemoglobin relative to oxygen” value (hemoglobin) was 200 fold.
